Counter-ions that a name gives are not always drawn.

Assay [1] concerns HeLa cells. The note with it: 0.2 μM DAPI, 60 min incubation. On the procedure:
Cells were fixed and stained with WGA-A488 (Invitrogen) as described above. […] Confocal images were captured and analyzed as described above.
For delivery studies, the DAPI concentration was five magnitudes lower measuring only 0.2 μM DAPI.

In assay [2] the test system is HeLa cells. In words: XTT cell viability assay, HeLa. Format: cell-based, human. To be noted: drug concentration, 24 h exposure, washed, further 24 h. (In general: Tetrazolium assays rely on reduction of a dye to a coloured formazan, in cell work by metabolically active cells.)
The next assay has as its system HT-29 cells. The assay is described as follows: XTT cell viability assay, HT-29. Format: cell-based. To be noted: Homo sapiens, drug concentration, 24 h exposure, washed, further 24 h.
Another assay has as its system PC-3 cells. In words: XTT cell viability assay, PC-3. The assay is classed as cell-based. The note with it: Homo sapiens, drug concentration, 24 h exposure, washed, further 24 h.

Turning to 4′,6-diamidino-2-phenylindole [DAPI], the “fluorescent signals from the nuclei” value with HeLa cells [1] is recorded as “do not show any apparent fluorescent signals”. Broadly, the IC50 is the concentration at which inhibition is half-maximal. Lower therefore signals greater potency in that assay. On to `N.N.[Cl][Pt][Cl]` [CDDP, cis-dichlorodiammine platinum(II)], for which the IC50 in the assay with HeLa cells [2] fell in the range of 12 to 21 µM. Consider `Nc1ccc2cc3ccc(N)cc3nc2c1` [proflavine, 3,6-diaminoacridine hydrochloride], for which the IC50 with HeLa cells [2] (Homo sapiens) is 1.8 to 2.9 µM; with HT-29 cells it was 6.13 µM; in the assay on PC-3 cells it was 6.13 µM.

The values above are taken from US11371025B2, “Non-covalent loading of plant picovirus particles” (CASE WESTERN RESERVE UNIVERSITY, priority 2013, dated 2022).
